Earlier results in US20060009430A1, “Composition for the prevention and treatment of the detrimental effects of dihydrotestosterone” (priority 2004, published 2006).

How the values were obtained:
[1] = test system: localized prostate cancer; conditions: 15 mg twice per day orally, 3 weeks
prostate = conditions: rats, in combination with finasteride
cancer = conditions: in vivo
prostate cancer = conditions: 200 μg daily for 4.5 years
advanced prostate cancer = conditions: men with most dietary selenium versus lowest intake

CC(C)=CCC/C(C)=C/C=C/C(C)=C/C=C/C(C)=C/C=C/C=C(C)/C=C/C=C(C)/C=C/C=C(\C)CCC=C(C)C [lycopene]
metastasis ([1]; biopsy): reduced metastasis
regression and malignancy ([1]; biopsy): signs of regression and reduced malignancy
tumor size ([1]; biopsy): smaller tumors
PSA ([1]; versus no intervention): significant reduction

O=c1c(O)c(-c2ccc(O)c(O)c2)oc2cc(O)cc(O)c12 [quercetin]
prostate weight (prostate): reduce prostate weight

[Se] [selenium]
reduction of cancer mortality and morbidity (cancer): approximately 50%
risk of lung, prostate and colon cancer (cancer): reduced significantly
skin cancer (prostate cancer): no changes
total, colorectal and lung cancer (prostate cancer): significant benefits
reduction in the incidence of prostate cancer (secondary endpoint) (prostate cancer; 6.5 years follow-up, 974 men): 63%
number that developed prostate cancer (prostate cancer; placebo group 35): 13
fewer cases of advanced prostate cancer (advanced prostate cancer): 65%
